Reference: patent publication US20240392249A1, “HUMAN HEPATOCYTE CULTURE MEDIUM AND CONDITIONED MEDIUM OF IN VITRO CULTURED HUMAN HEPATOCYTES AND USES THEREOF” (UNIVERSITY OF SOUTHERN CALIFORNIA, priority 2021, published 2024)

Experiments:
HH [1] = test: Screen of organic compounds as DMSO substitution: morphology and hepatocyte marker gene expression of recovered HH; assay type: cell-based, human; settings: substitution for DMSO, additional 7 and 14 days culture
Excerpt: Then, total cell lysates were subjected to immunoblotting analysis for the detection of indicated molecules. NT; non treatment.
Then, HH was subjected to immunofluorescent analysis for the detection of MRP2 (Arrowheads), F-actin, DAPI. The bar indicates 25 μm.
In search of the DMSO substitution, we screened numerous organic compounds. The list of chemicals (Table 3) is selected based on the shared characteristics with DMSO, such as but not limited to the molecular size, solubility to the cell culture medium, stability at the standard temperature (melting and boiling temperatures), feasibility in handling (no significant chemical hazardous concern), and the cost. […] With the highest possible concentration, recovered HH (7 days old) were cultured for additional 7 and 14 days with refreshing of the medium at a frequency of every 3-4 days. On day 14 and 21, cells were subjected to the morphological and cell fate assessment along with the functional assessment (FIGS. 7 and 8).

ADH = ADH activity (NADH production rate, absorbance at 340 nm) in HH cell homogenate; assay type: biochemical, human; settings: in the presence of the organic compound
Experimental: Hepatoma cells (Huh7 and HepG2) were used as negative controls. (B) The relative ADH activity of HH were assessed in the absence of organic compounds (NT), as well as in the presence of DMSO or DMSO2 using the same method described in (A).

CYP2E1 [2] = assay type: cell-based; settings: human, 7 days
Experimental: FIG. 9 show the impact of DMSO on the inducibility of CYP genes. Freshly isolated HHs were cultured for 7 days with HH recovery media (dHCGM) followed by the maintenance/application medium containing DMSO or DMSO2 for another 7 days in the presence of indicated concentration of CYP3A4 inducers ([…] and carbamazepine) (left) and CYP2El inducers (ethanol and isoniazid) (right). Then, and total RNA and cell lysates were subjected to immunoblotting analysis (left) and qPCR analysis (right) to determine the inducibility of indicated molecules.

HH [3] = test: Role of DMSO in the cell fate recovery of freshly isolated HH; assay type: cell-based, human; settings: 7 days
Excerpt: Then, HH were subjected to (A) immunofluorescent analysis for the detection of MRP2 (Arrowheads), (B) immunoblotting and (C) qPCR analysis for the detection of indicated hepatocytes marker molecules at the indicated time points.

CYP2A9 = CYP2A9 (Homo sapiens, UniProt P11712); settings: HH, in the presence of the organic compound
CYP2A9, sequence (P11712 whole entry): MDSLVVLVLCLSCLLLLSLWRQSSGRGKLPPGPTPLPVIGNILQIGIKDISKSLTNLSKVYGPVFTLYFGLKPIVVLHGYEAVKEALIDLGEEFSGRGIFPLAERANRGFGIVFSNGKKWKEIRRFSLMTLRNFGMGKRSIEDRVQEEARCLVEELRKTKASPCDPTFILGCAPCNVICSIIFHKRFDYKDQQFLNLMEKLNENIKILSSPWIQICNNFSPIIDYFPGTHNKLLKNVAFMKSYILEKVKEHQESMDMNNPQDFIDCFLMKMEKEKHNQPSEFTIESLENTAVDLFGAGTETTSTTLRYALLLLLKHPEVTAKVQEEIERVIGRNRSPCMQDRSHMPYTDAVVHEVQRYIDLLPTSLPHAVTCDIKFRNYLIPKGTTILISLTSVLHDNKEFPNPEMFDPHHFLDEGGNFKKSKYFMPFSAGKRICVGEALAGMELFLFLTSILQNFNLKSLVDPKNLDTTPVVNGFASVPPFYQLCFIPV
Experimental: (§1) Then, cells were used for the assessment of CYP3A4 (left), and CYP2A9 (middle) activity in the presence of organic compounds (DMSO or DMSO2) using P450-Glo™ Assays (Promega). For the assessment of CYP2E1 activity (right) was assessed using Vivid™ CYP2E1 Blue Screening Kit (Thermo Fisher). Graph bars represent mean±SD; *, ** and *** indicate p<0.05 and p<0.01 and p<0.001 by one-way ANOVA; n.s, not significant; n.d., not detected.

CYP2E1 [4] = target: CYP2E1 (Homo sapiens, UniProt P05181); test: CYP2E1 activity, Vivid CYP2E1 Blue Screening Kit; settings: in the presence of the organic compound
CYP2E1 (Homo sapiens, UniProt P05181), sequence (P05181 whole entry): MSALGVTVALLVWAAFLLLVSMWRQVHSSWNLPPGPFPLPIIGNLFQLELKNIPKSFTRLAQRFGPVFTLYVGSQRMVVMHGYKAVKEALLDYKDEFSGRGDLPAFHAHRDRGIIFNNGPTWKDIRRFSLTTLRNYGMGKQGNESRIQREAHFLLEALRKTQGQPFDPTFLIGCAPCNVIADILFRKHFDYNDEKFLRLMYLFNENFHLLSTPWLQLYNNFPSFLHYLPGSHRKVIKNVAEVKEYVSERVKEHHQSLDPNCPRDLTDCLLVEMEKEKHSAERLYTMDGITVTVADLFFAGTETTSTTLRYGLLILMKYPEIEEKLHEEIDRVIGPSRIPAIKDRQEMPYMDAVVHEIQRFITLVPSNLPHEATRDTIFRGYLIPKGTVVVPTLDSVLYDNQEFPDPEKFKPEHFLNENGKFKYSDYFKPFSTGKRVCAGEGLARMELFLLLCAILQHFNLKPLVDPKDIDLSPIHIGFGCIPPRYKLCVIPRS
Experimental: as §1
For the assessment of CYP2E1 activity (right) was assessed using VividTM CYP2E1 Blue Screening Kit (Thermo Fisher).

HH [5] = test: Withdrawal of DMSO from recovered HH: MRP2 immunofluorescence, immunoblotting, qPCR; assay type: cell-based, human; settings: after 7 days recovery, additional 4 days
Excerpt: Then, HH were subjected to (A) immunofluorescent analysis for the detection of MRP2 (Arrowheads), (B) immunoblotting and (C) qPCR analysis for the detection of indicated hepatocytes marker molecules. The bar indicates 25 μm.

HH [6] = test: Ethanol metabolism to acetate by cultured HH (Acetate Colorimetric Assay Kit); assay type: cell-based; settings: 10 mM ethanol, 24 hours, sealing apparatus, compared with human liver
Experimental: Then, HH were cultured with either DMSO or DMSO2 containing maintenance/application medium in the absence (0 mM) or presence of 10 mM ethanol for 24 hours. The sealing apparatus was applied throughout the course of ethanol treatment. At the end of the ethanol treatment, cell culture medium was harvested followed by the measurement of acetate concentration using Acetate Colorimetric Assay Kit (Biovision). […] The rate of acetate production was normalized by the cell number of the […] in order to assess the comparability of EtOH metabolizing capacity of HH with each given condition to that of the health human liver (right).

CYP3A4 [7] = target: T1, CYP3A4 (Homo sapiens, UniProt P08684); test: CYP3A4 activity in cultured HH, P450-Glo Assays; assay type: in vitro ADME; settings: in the presence of the organic compound
T1 construct: endogenous in cells; host or cells: freshly isolated human hepatocytes (HH) in culture
T1 sequence (P08684 whole entry): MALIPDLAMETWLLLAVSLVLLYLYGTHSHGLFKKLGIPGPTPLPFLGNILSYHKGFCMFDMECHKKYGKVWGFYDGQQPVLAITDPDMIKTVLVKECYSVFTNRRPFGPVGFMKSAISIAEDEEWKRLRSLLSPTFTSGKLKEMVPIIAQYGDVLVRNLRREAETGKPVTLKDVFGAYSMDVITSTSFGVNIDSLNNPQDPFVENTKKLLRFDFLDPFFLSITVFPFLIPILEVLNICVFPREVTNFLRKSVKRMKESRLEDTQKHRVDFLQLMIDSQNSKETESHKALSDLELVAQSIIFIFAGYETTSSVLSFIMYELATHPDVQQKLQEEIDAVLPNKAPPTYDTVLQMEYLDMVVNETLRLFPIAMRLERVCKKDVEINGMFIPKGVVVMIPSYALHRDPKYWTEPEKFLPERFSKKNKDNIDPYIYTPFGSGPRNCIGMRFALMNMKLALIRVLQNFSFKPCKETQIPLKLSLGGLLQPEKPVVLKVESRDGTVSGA
Experimental: as §1

CYP3A4 [8] = test: CYP3A4 expression and inducibility in HH (immunoblotting); assay type: cell-based, human; settings: HH cultured with DMSO2, 7-day treatment
Excerpt: Then, and total RNA and cell lysates were subjected to immunoblotting analysis (left) and qPCR analysis (right) to determine the inducibility of indicated molecules. Graph bars represent mean±SD; *, ** and *** indicate p<0.05 and p<0.01 and p<0.001 by one-way ANOVA.

HH [9] = settings: HH cultured with DMSO2-containing medium, only when tight-sealing apparatus is applied
Excerpt: Due to the high volatility of ethanol, it evaporates rapidly at a much higher rate that the rate of hepatocytes metabolizes.

| CYP2E1 induction by inducer (CYP2E1 [2]) | SMILES | maintenance of morphology and marker genes expression of recovered HH (HH [1]) | effect on ADH activity / ADH pathway (ADH) | effect on metabolic activity of CYP2E1 / CYP2E1 pathway (CYP2E1 [4]) | effect on metabolic activity of CYP3A4 (CYP3A4 [7]) | also measured |
| --- | --- | --- | --- | --- | --- | --- |
| – | [O-][S+]1CCCC1 [TMSO, Tetramethylene sulfoxide] | capable of maintaining the morphology and the marker genes expression at a level comparable to that of DMSO-containing medium | inhibition of alcohol metabolism enzymes | – | – | – |
| lack of CYP2E1 induction | NNC(=O)c1ccncc1 [Isoniazid] | – | – | – | – | – |
| – | C[S+](C)[O-] [DMSO, dimethyl sulfoxide] | – | inhibition of ADH activity | reciprocal changes were also seen in CYP2E1 | potently prohibits | recovery of HH from cell injury and stress when cultured without DMSO during Phase 1 (HH [3]): would not promote the recovery; effect on CYP2A9 activity (CYP2A9): inhibition of DMPK enzymes; effect of withdrawal of DMSO on hepatocytic function and morphology (HH [5]): rapid deterioration of the hepatocytic function and morphology; ethanol metabolism by HH (acetate production) (HH [6]): inhibition of ethanol metabolism to the production of acetate |
| – | NC(=O)N1c2ccccc2C=Cc2ccccc21 [Carbamazepine] | – | – | – | – | CYP3A4 induction by inducer (CYP3A4 [8]): CYP3A4 induction in a dose dependent manner |
| – | CS(C)(=O)=O [DMSO2, dimethyl sulfone] | capable of maintaining the morphology and the marker genes expression at a level comparable to that of DMSO-containing medium | – | substantially less than that of DMSO-containing medium | substantially less than that of DMSO-containing medium | – |
| lack of CYP2E1 induction | CCO [Ethanol] | – | – | – | – | lipid droplet accumulation in HH (HH [9]): accumulation of lipid droplet (LD) |
